From paper PMC6723713, “Purification, Characterization and Evaluation of Inhibitory Mechanism of ACE Inhibitory Peptides from Pearl Oyster (Pinctada fucata martensii) Meat Protein Hydrolysate” (Marine Drugs, 2019)
Read-outs that look alike come from different tables or passages of the source. Where a SMILES comes first, the peptide text is derived from it.

Assays:
SD rats = assay: Antihypertensive activity in SD rats, SBP and DBP after intravenous administration; assay type: in vivo; settings: 10 mg/kg
Experimental: The antihypertensive efficacy of POMPH was evaluated in male SD rats (10 weeks old, 250 ± 30 g body weight, specific pathogen-free, provided by the animal experimental center of Guangxi medical University, China). All rats were cared and fed following the standards for laboratory animals established by People’s Republic of China (GB14925-2001) and animal handling followed the Declaration of Helsinki and the Guiding Principles in the Care and Use of Animals. The rats were exposed to intraperitoneal injection L-NNA (L-nitro-arginine) once a day for four weeks prior to the experiments. The POMPH at 10 mg/kg, dissolved in a vehicle of 0.9% NaCl, were intravenously administered. The concentration of HLHT and GWA in POMPH were 1.8 µg/mg and 1.2 µg/mg, respectively. The efficacy of POMPH on lowering SBP and diastolic blood pressure (DBP) was compared to that of captopril (10 mg/kg). Control rats were administrated with the same volume of saline solution. SBP and DBP were determined by the noninvasive tail cuff method using BP-2010 (Softron Beijing biotechnology Co., Ltd) at 0 min (before) and 5, 10, 20 and 45 min after the administration.
(§1) All the experiments were performed in triplicate and mean values with ± SD (standard deviation) were reported. All data were analyzed by one-way ANOVA, using SPSS 17.0 software (Chicago, IL, USA). A value of p < 0.05 was considered statistically significant.

ACE [1] = biological target: T1, ACE (Oryctolagus cuniculus, UniProt P12822); settings: cited from earlier work
T1 construct: purchased Sigma-Aldrich (Shanghai, China)
T1 sequence (P12822 34-1310): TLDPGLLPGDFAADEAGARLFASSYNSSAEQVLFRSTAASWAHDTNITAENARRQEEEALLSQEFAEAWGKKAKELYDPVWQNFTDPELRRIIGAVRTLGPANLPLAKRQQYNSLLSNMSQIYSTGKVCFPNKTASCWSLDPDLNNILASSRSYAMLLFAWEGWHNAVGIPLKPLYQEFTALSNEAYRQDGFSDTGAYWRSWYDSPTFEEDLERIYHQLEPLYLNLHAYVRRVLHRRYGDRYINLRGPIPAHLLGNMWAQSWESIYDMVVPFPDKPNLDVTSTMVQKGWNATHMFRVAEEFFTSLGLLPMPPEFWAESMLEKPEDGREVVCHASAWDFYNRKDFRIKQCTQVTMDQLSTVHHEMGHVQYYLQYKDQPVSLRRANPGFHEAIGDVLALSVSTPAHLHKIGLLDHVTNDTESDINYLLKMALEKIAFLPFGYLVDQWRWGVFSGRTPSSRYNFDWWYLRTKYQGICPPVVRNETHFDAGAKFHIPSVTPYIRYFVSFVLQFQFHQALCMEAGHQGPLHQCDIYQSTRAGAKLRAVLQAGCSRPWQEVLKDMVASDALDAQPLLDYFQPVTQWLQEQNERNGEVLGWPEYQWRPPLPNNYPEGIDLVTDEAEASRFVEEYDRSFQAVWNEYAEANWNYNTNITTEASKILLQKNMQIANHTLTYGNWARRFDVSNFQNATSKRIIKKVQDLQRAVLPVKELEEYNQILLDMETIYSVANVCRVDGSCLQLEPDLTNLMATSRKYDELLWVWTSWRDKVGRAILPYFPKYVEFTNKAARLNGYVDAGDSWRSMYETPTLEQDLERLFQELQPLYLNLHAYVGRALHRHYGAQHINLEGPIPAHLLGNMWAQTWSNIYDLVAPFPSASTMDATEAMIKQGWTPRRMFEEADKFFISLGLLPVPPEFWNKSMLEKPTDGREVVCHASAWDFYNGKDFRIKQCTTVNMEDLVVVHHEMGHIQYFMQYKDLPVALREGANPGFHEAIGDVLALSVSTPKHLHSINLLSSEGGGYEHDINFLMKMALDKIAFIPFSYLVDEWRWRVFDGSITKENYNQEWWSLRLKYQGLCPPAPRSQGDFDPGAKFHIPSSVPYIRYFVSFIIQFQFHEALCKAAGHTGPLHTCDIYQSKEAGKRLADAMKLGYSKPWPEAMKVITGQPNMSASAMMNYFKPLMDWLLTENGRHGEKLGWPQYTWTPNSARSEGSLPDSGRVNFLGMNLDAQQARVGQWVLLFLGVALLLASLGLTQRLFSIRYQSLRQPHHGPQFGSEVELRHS
Excerpt: Table 2 Summary of ACE inhibitory peptides having similar structure with purified peptides. | column: IC50 (μM) || Table 3 Inhibition pattern of ACE inhibitory peptides derived from marine products. | column: Inhibition Pattern; IC50 (μM)

[2] = biological target: T2, Angiotensin I converting enzyme (UniProt P12822)
T2 sequence: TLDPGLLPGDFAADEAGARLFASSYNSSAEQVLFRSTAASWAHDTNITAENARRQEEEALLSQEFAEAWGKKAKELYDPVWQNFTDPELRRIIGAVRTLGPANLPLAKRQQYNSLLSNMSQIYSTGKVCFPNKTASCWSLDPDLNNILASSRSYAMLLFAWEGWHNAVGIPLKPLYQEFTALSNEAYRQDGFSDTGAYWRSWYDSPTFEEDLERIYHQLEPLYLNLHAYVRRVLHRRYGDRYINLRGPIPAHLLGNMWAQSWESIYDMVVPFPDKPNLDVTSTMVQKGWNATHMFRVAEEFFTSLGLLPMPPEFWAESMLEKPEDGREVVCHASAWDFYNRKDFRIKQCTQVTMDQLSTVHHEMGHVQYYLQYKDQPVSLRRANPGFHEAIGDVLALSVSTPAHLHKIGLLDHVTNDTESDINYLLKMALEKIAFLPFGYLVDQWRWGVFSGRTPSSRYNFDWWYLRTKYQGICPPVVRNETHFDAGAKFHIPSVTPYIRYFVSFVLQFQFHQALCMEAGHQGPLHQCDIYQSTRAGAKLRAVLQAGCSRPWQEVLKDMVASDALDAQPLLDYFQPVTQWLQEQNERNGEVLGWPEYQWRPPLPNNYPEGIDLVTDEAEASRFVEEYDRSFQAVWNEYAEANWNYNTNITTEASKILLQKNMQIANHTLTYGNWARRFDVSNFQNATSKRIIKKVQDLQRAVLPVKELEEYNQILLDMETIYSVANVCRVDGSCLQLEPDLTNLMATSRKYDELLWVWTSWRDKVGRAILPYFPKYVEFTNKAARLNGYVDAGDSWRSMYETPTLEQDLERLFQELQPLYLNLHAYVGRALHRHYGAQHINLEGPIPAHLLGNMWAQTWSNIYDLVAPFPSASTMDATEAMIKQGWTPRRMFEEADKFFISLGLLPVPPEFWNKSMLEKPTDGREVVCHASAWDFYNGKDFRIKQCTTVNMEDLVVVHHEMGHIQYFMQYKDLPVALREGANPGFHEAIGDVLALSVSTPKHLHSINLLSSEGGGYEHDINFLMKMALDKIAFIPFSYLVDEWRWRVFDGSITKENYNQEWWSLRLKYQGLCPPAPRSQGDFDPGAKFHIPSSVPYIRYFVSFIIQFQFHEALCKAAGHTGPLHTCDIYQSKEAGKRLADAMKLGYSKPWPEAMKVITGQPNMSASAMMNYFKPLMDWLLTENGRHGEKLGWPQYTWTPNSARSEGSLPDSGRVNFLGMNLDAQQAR

[3] = biological target: T2, Angiotensin I converting enzyme; remark: listed apart in the source
ACE [4] = biological target: T1, ACE; assay: Inhibition pattern by Lineweaver-Burk plot; assay type: biochemical; settings: HHL 1-5 mM, HLHT 0, 295.86, 591.72 μM, GWA 0, 98.62, 197.24 μM, pre-incubated 37 °C 10 min, 5 min incubation with HHL, HPLC 228 nm
Experimental: The inhibitory patterns of purified peptides HLHT and GWA on ACE were evaluated by incubating various concentrations (1, 2, 3, 4, and 5 mM) of HHL with ACE in the absence and presence of inhibitory peptides. The concentrations of HLHT were set as 0, 295.86, and 591.72 μM while those of GWA were set as 0, 98.62, and 197.24 μM. The purified ACE inhibitory peptide (30 µL) at various concentrations and ACE solution (30 µL) were mixed and pre-incubated at 37 °C for 10 min. Subsequently, HHL (40 µL) was added and incubated for 5 min at 37 °C. The reaction was terminated by adding 1 M HCl (150 µL). The released hippuric acid (HA) was quantified using HPLC at 228 nm. The ACE inhibitory pattern in the presence of the inhibitor was determined using the Lineweaver–Burk plot, where the reciprocal of HHL concentration was used as the independent variable (X-axis) and the reciprocal of production rate of HA as the dependent variable (Y-axis).

[5] = biological target: T3, Angiotensin-I-converting enzyme (ACE) (Oryctolagus cuniculus, UniProt P12822); assay: In vitro assay of ACE inhibitory activity; assay type: biochemical; settings: triplicate, mean ± SD; for ACE inhibitory activity: 0.54 mg/mL protein concentration, second RP-HPLC fractions; for IC50: logarithmic regression
T3 construct: purchased Sigma-Aldrich (Shanghai, China)
T3 sequence (P12822 34-1310): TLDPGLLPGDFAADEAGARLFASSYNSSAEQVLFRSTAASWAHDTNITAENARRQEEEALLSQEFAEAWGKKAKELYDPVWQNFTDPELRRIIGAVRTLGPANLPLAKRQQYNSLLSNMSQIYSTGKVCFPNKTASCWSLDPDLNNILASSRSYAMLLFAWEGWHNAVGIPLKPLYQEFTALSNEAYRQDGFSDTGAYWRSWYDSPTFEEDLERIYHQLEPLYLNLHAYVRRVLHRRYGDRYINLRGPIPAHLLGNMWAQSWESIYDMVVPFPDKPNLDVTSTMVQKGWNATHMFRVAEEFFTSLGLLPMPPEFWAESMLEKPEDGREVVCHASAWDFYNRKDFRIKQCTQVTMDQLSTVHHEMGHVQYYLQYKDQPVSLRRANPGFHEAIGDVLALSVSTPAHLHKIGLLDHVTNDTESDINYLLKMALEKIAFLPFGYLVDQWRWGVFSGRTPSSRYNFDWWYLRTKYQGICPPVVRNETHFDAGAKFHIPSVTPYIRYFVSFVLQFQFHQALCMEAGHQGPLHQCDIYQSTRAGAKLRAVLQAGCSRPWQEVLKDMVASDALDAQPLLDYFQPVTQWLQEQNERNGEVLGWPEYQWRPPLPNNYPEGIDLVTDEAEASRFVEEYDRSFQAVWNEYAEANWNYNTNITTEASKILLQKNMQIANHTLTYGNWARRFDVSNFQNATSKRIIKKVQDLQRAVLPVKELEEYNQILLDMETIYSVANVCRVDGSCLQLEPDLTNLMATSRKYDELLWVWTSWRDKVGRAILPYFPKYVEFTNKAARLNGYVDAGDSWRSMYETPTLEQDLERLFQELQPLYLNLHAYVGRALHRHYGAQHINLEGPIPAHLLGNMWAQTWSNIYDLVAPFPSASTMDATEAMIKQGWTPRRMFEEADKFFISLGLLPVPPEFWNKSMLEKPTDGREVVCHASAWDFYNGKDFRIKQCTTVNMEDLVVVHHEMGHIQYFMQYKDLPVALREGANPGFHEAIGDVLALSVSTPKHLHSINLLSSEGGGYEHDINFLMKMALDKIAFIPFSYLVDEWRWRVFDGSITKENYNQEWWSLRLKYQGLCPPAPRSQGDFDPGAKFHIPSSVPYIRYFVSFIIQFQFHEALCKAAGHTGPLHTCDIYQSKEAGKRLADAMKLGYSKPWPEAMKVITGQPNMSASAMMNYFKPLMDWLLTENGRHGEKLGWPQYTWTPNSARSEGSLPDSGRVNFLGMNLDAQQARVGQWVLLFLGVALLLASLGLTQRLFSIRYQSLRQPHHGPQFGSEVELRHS
Experimental: ACE inhibitory activity in vitro was measured according to the reported method. The activity was determined for each step of separation, and fraction with the highest ACE inhibitory activity was collected for further purification. The IC50 value (the concentration of peptide inhibiting 50% of enzyme activity) was determined by logarithmic regression analysis.
as §1

[6] = synthesized peptide (98% purity)

Compound: C[C@H](CS)C(=O)N1CCC[C@H]1C(=O)O [captopril]
- change in SBP vs control, in words (SD rats; 0-45 min): significant decrease in SBP
- maximum decrease in SBP (SD rats; 20 min, male L-NNA-treated SD rats, tail cuff): 27.0 mmHg
- SBP beyond 20 min (SD rats; beyond 20 min (to 45 min)): remained stable
- change in DBP vs control, in words (SD rats; in comparison with control group): significantly changed in comparison with control group
- DBP after 20 min of intravenous administration (SD rats; "decreased to", 20 min, male L-NNA-treated SD rats, tail cuff): 39.5 mmHg

Compound: VVYPWTTQRF
- IC50 (ACE [1]; ref [35]): 66 µM
- Inhibition Pattern (ACE [1]; ref [35]): Non-competitive

Compound: GDLGKTTTVSN-WSPPKYKDTP (GDLGKTTTVSNWSPPKYKDTP)
- IC50 (ACE [1]; ref [33]): 11.3 µM

Compound: Gly-Trp-Ala, synthesized (peptide)
- IC50 of ACE inhibitory activity (enzyme activity on HHL), synthesized peptide [2]: 98.9 µM

Compound: Gly-Trp-Ala, purified from pearl oyster meat protein hydrolysate (fraction F62) (peptide)
- IC50 of ACE inhibitory activity (enzyme activity on HHL), peptide purified from POMPH [2]: 109 µM
- ACE inhibitory activity (%) of fraction F62 at a protein concentration of 0.54 mg/mL [3]: 84.7%

Compound: HLPLP
- IC50 (ACE [1]; ref [28]): 41 µM

Compound: CRQHTLGHNT-QTSIAQ
- Inhibition Pattern (ACE [1]; ref [32]): Non-competitive

Compound: C[C@H](NC(=O)[C@H](Cc1c[nH]c2ccccc12)NC(=O)CN)C(=O)O [GWA, Gly-Trp-Ala] (H-Gly-Trp-Ala-OH)
- Inhibition Pattern (ACE [4]): competitive inhibition pattern
- ACE inhibitory activity [5]: 84.71 ± 1.27%
- IC50 ([5]; peptide purified from POMPH): 109 ± 1.45 µM
- IC50 [5, 6]: 98.9 ± 5.73 µM

Compound: CC(C)C[C@H](NC(=O)[C@@H](N)Cc1c[nH]cn1)C(=O)N[C@@H](Cc1c[nH]cn1)C(=O)N[C@H](C(=O)O)[C@@H](C)O [HLHT, His-Leu-His-Thr] (H-HLHT-OH)
- ACE inhibitory activity [5]: 64.73 ± 1.32%
- IC50 ([5]; peptide purified from POMPH): 458.1 ± 3.24 µM
- IC50 [5, 6]: 452.2 ± 2.36 µM

Compound: HLPLPLL
- IC50 (ACE [1]; ref [28]): 34.4 µM
